# Like-named read-outs stand apart in the source and are kept apart here.
# Experiments:
# E. Coli ATCC 9637 = assay: Serial dilution test in the microtiter system (MIC), E. Coli ATCC 9637; type: cell-based; settings: Escherichia coli, ATCC9637
# [1] = system: Escherichia coli ATCC 11 775; assay: Serial dilution test in the microtiter system (MIC), E. Coli ATCC 11775; type: cell-based
# Procedure: (§1) These tests were performed according to the method of the serial dilution test in the microtiter system. The effect of the substances on bacteriostasis was examined in a fluid medium. […] A nutrient medium of the following composition was used. 10 gm of peptone, 8 gm of meat extract-oxoid, 3 gm of sodium chloride, 2 gm of sec. sodium phosphate were diluted with distilled water to […] (pH 7.2-7.4). Only in the test against streptococci 1% of glucose was added. The age of the primary cultures was about 20 hours. The standardization of the pathogen suspension was effected by using a photometer according to "Eppendorf" (test tube dismeter 14 mm, filter 546 nm) with the aid of the turbidity of a comparison suspension consisting of barium sulfate, this suspension being prepared by addition of 3.0 ml of 1% barium chloride solution to 97 ml of 1% sulfuric acid. After the standardization, streptococcus aronson were further diluted to a concentration of 1:15 and the other microorganisms to a concentration of 1:1500 by means of a sodium chloride solution.
# (§2) 16 mg of the test substance were put into a 10 ml-measuring flask and filled up to the mark with the solvent. The further dilution series was standardized with distilled water or the respective solvent.
# (§3) The cavities of the microtiter plates were filled with 0.2 ml of nutrient medium. Then, 0.01 ml of the corresponding test substance dilution was added and inoculated with 0.01 ml of the standardized suspension. The bacteria were incubated at 37° C. for 18-20 hours. Control tests merely using the solvent were carried out simultaneously.
# (§4) The measurement was carried out macroscopically to determine the minimal inhibitory (threshold) concentration, i.e. the lower still bacteriostatically effective concentration.
# (§5) Staphylococcus aureus SG 511, Escherichia coli ATCC 11 775, Pseudomonas aeruginosa Hamburgensis and Pseudomonas aeruginosa Walter, Serratia marcescens ATCC 13880, Klebsiella pneumoniae ATCC 10 031 and 272, Proteus mirabilis Hamburgensis, Proteus rettgeri, Enterbacter cloaceae ATCC 13 047 and E. Coli R+TEM (β-lactamase carrier).
# [2] = system: Pseudomonas aeruginosa Hamburgensis; assay: Serial dilution test in the microtiter system (MIC), Pseud. aerug. Hbg.; type: cell-based
# Procedure: as §1, §2, §3, §4, §5
# [3] = system: Pseudomonas aeruginosa Walter; assay: Serial dilution test in the microtiter system (MIC), Pseud. aerug. Walter; type: cell-based
# Procedure: as §1, §2, §3, §4, §5
# [4] = system: Serratia marcescens ATCC 13880; assay: Serial dilution test in the microtiter system (MIC), Serrat. marcesc. ATCC 13880; type: cell-based
# Procedure: as §1, §2, §3, §4, §5
# [5] = system: Klebsiella pneumoniae ATCC 10 031; assay: Serial dilution test in the microtiter system (MIC), Klebs. pneum. ATCC 10031; type: cell-based
# Procedure: as §1, §2, §3, §4, §5
# [6] = system: Klebsiella pneumoniae 272; assay: Serial dilution test in the microtiter system (MIC), Klebs. pneum. 272; type: cell-based
# Procedure: as §1, §2, §3, §4, §5
# [7] = system: Proteus mirabilis Hamburgensis; assay: Serial dilution test in the microtiter system (MIC), Prot. mirabilis; type: cell-based
# Procedure: as §1, §2, §3, §4, §5
# Proteus rettgeri = assay: Serial dilution test in the microtiter system (MIC), Prot. rettgeri; type: cell-based; settings: Providencia rettgeri, 37° C., 18-20 hours, read-out: MIC
# Procedure: as §1, §2, §3, §4, §5
# [8] = system: Enterbacter cloaceae ATCC 13 047; assay: Serial dilution test in the microtiter system (MIC), Eb. cloaceae ATCC 13047; type: cell-based
# Procedure: as §1, §2, §3, §4, §5
# E. coli ATCC 11775 = assay: In vivo activity in mice, E. coli infection; set-up: species or system Female NMRI mice; settings: Escherichia coli, ATCC11775, iPSC, sc, 168 h; E. coli infection i.p.; s.c. administration; per dose; observation 7 days; read-out: ED50 (dose at which 50% of the animals survived)
# Procedure: (§6) A number of compounds of this invention were tested in vivo in mice against experimental infections. Bacteria E. coli ATCC 11775 and Psuedomonas aeruginosa Walter were used as pathogens. An intraperitoneal infection with 0.2 ml of a 5% suspension of the bacteria was induced. This corresponds to about 2×10^6 E. Coli germs and 8×10^5 pseudomonas germs/mouse. […] The groups with E. coli infection were treated with the test compound three times on the first day (1, 4, and 7 hours post infectionem) and for two days thereafter twice a day. The groups with the pseudomonas infection were treated with the test compound 6 times on the first day (1, 3, 6, 9, 12 and 15 hours post infectionem) and for two days thereafter twice a day. The observation time was in both cases 7 days. The results of these tests with representatives of the penicillins and cephalosporins according to the invention are shown in the following table: […]
# [9] = system: Psuedomonas aeruginosa Walter; assay: In vivo activity in mice, Pseudomonas infection; set-up: species or system Female NMRI mice; settings: Mus musculus, iPSC, sc, 168 h; Pseudomonas infection i.p.; s.c. administration; per dose; observation 7 days; read-out: ED50 (dose at which 50% of the animals survived)
# Procedure: as §6
# [10] = system: Staphylococcus aureus SG 511; assay: Serial dilution test in the microtiter system (MIC), S. aureus SG 511; type: cell-based; settings: SG511
# Procedure: as §1, §2, §3, §4, §5
# [11] = Table III, E. Coli ATCC 9637, 37° C., 18-20 hours, read-out: MIC
# [12] = Table III, Pseud. aerug. Hbg., 37° C., 18-20 hours, read-out: MIC
# [13] = ATCC13880, Table III, Serrat. marcesc. ATCC 13880, 37° C., 18-20 hours, read-out: MIC
# [14] = Table III, E. Coli ATCC 11775, 37° C., 18-20 hours, read-out: MIC
# [15] = Table III, Pseud. aerug. Walter, 37° C., 18-20 hours, read-out: MIC
# [16] = Table III, Prot. mirabilis, 37° C., 18-20 hours, read-out: MIC
# [17] = Table IV, Prot. mir. Hbg., 37° C., 18-20 hours, read-out: MIC
Structure (SMILES),MIC (E. Coli ATCC 9637; [11]),"MIC [2, 12]",MIC [3],"MIC [4, 13]",MIC [5],"MIC (Proteus rettgeri; Table III, Prot. rettgeri)",MIC [8],ED50 (E. coli ATCC 11775),"MIC [1, 14]","MIC [3, 15]",MIC [6]; 272,"MIC [7, 16]","MIC [7, 17]","MIC (Proteus rettgeri; Table IV, Prot. rettg.)",further results
"CC1(C)S[C@@H]2[C@H](NC(=O)[C@H](NC(=O)Nc3cnc(NCc4ccco4)nc3O)c3ccc(O)cc3)C(=O)N2[C@H]1C(=O)O [D, D-α-{3-[4-Hydroxy-2-(2'-furylmethylamino)-5-pyrimidinyl]-ureido}-p-hydroxy-benzyl-penicillin sodium]",0.5 µg/mL,1 µg/mL,2 µg/mL,0.5 µg/mL,4 µg/mL,0.5 µg/mL,4 µg/mL,0.8 mg/kg,–,–,–,–,–,–,"MIC [1]: 1 µg/mL; MIC ([6]; Table III, Klebs. pneum. 272, 37° C., 18-20 hours, read-out: MIC): 8 µg/mL; MIC [7]: 0.25 µg/mL; ED50 [9]: 1.5 mg/kg"
"CC1(C)S[C@@H]2[C@H](NC(=O)[C@H](NC(=O)Nc3cnc(Nc4ccc(S(C)(=O)=O)nc4)nc3O)c3ccc(O)cc3)C(=O)N2[C@H]1C(=O)O [Compound E, D-α-{3-[4-Hydroxy-2-(6'-methylsulfonyl-3'-pyridylamino)-5-pyrimidinyl]-ureido}-p-hydroxy-benzyl-penicillin sodium]",0.2 µg/mL,1 µg/mL,–,0.2 µg/mL,2 µg/mL,0.25 µg/mL,2 µg/mL,–,0.2 µg/mL,1 µg/mL,2 µg/mL,0.06 µg/mL,–,–,–
CC(=O)OCC1=C(C(=O)O)N2C(=O)[C@@H](NC(=O)[C@H](NC(=O)Nc3cnc(NCc4ccco4)nc3O)c3ccc(O)cc3)[C@H]2SC1 [K],–,–,8 µg/mL,–,–,–,4 µg/mL,–,–,–,–,–,0.25 µg/mL,1 µg/mL,"MIC ([1]; Table IV, E. Coli ATCC 11775, 37° C., 18-20 hours, read-out: MIC): 0.5 µg/mL; MIC ([2]; Table IV, Pseud. aerug. Hbg., 37° C., 18-20 hours, read-out: MIC): 16 µg/mL; MIC ([4]; ATCC13880): 2 µg/mL; MIC ([5]; Table IV, Klebs. pneum. ATCC 10031, 37° C., 18-20 hours, read-out: MIC): 1 µg/mL; MIC ([6]; Table IV, Klebs. pneum. 272, 37° C., 18-20 hours, read-out: MIC): 1 µg/mL; MIC [10]: 1 µg/mL"
"Cc1ncc(CNc2ncc(NC(=O)N[C@@H](C(=O)N[C@@H]3C(=O)N4[C@@H]3SC(C)(C)[C@@H]4C(=O)O)c3ccc(O)cc3)c(O)n2)cn1 [F, D-α-{3-[4-Hydroxy-2-(2'-methyl-5'-pyrimidinylmethylamino)-5-pyrimidinyl]-ureido}-p-hydroxy-benzyl-penicillin sodium]",–,–,–,0.5 µg/mL,8 µg/mL,0.5 µg/mL,4 µg/mL,–,0.5 µg/mL,1 µg/mL,8 µg/mL,0.06 µg/mL,–,–,MIC (E. Coli ATCC 9637): 0.5 µg/mL
"Cn1nnnc1SCC1=C(C(=O)O)N2C(=O)[C@@H](NC(=O)C(NC(=O)Nc3cnc(NCc4ccco4)nc3O)c3cccs3)[C@H]2SC1 (single isomer, unassigned) [M]",–,–,4 µg/mL,–,–,–,–,0.8 mg/kg,–,–,0.5 µg/mL,–,0.12 µg/mL,0.5 µg/mL,"MIC [2]: 8 µg/mL; MIC ([4]; ATCC13880, Table IV, Serr. marcesc. ATCC 13880, 37° C., 18-20 hours, read-out: MIC): 0.5 µg/mL"

# Reference: US4415566A, “Cephalosporin derivatives” (Boehringer Ingelheim GmbH, priority 1979, dated 1983)
